From patent EP0405506A1, “Tetrapeptide type-B CCK receptor ligands” (ABBOTT LABORATORIES, priority 1989, dated 1991)
Read-outs that look alike come from different tables or passages of the source. Square brackets hold non-standard residues; d marks the D form. Peptide text beside a SMILES is read from it. * marks the point of attachment. Ala(1H-tetrazol-5-yl) = N[C@@H](Cc1nnn[nH]1)C(=O)O; 1Nal = N[C@@H](Cc1cccc2ccccc12)C(=O)O; 2Nal = N[C@@H](Cc1ccc2ccccc2c1)C(=O)O; Tic = O=C(O)[C@@H]1Cc2ccccc2CN1; Cha = N[C@@H](CC1CCCCC1)C(=O)O; NMeL = CN[C@@H](CC(C)C)C(=O)O; Cbz = O=C(OCc1ccccc1)*; Boc = CC(C)(C)OC(=O)*

Columns and labels:
[1] = target: T1, cortical CCK receptor (Cavia porcellus, UniProt H0VZC5); experiment: Radioligand binding ([125I]Bolton-Hunter CCK8) in guinea pig cerebral cortical membranes; conditions: displacement of [125I]BH-CCK8, cortical membranes, 30°C for 150 min, Hill analysis; read-out: IC₅₀ (nM) cortex
T1 construct: Cortical and pancreatic membranes were prepared as described; from tissue; host or cells: guinea pig cerebral cortex membranes
T1 sequence (H0VZC5 1-426): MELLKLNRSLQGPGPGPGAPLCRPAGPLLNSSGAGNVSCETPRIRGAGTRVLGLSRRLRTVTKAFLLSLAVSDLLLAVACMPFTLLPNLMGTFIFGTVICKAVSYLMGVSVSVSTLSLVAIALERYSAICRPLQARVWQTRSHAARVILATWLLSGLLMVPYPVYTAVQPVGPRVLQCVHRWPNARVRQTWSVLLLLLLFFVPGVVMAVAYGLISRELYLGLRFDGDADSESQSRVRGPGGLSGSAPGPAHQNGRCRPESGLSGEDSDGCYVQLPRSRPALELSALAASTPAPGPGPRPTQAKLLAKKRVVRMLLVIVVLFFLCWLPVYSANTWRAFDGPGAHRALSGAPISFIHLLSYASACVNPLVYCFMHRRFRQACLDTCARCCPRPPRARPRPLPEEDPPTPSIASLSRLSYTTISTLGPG
Excerpt: Protocol for Radioligand Binding Experiments in Guinea Pig Cerebral Cortical and Pancreatic Membrance Preparations
CCK8 (Asp-Tyr(SO₃H)-Met-Gly-Trp-Met-Asp-Phe-NH₂), bestatin and phosphormaidon were purchased from Peptide International (Louisville, KY). EGTA, HEPES, BSA were purchased from Sigma Chemical Co. (St. Louis, MO). [¹²⁵I]-Bolton-Hunter CCK8 (BH-CCK8) (specific activity, 2200 Ci, mmol) was obtained from New England Nuclear (Boston, MA). Male ginea pigs, 250 to 325 g, were obtained from Scientific Small Animal Laboratory and Farm (Arlington Heights, IL). Collangenase, code CLSPA was purchased from Worthington (Frehold, NJ).
Cortical and pancreatic membranes were prepared as described (Lin and Miller; J. Pharmacol. Exp. Ther. 232, 775-780, 1985). In brief, pancreas and cortex were removed and rinsed with ice-cold saline. Visible fat and connective tissues were removed from the pancreas. Tissues were weighed and homogenized in approximately 25 mL of ice-cold 50 mM Tris-HCl buffer, pH 7.4 at 4°C with a Brinkman Polytron for 30 sec, setting 7. The homogenates were centrifuged for 10 min at 1075 x g and the pellet was discarded. The supernantants were saved and centrifuged at 38,730 x g for 20 min. The resultant pellets were rehomogenized in 25 mL of 50 mM Tris-HCl buffer with a Teflon-glass homogenizer, 5 up and down strokes. The homogenates were centrifuged again at 38,730 x g for 20 min. The pellets were then resuspended in 20 mM HEPES, containing 1 mM EGTA, 118 mM NaCl, 4.7 mM KCl, 5mM MgCl₂, 100 uM bestatin, 3 uM phosphoramidon, pH 7.4 at 22°C with a Teflon-glass homogenizer, 15 up and down strokes. The resuspension volume used for the cortex was 15 mL per g of original wet weight and 60 mL per g for pancreas.
[¹²⁵I]Bolton-Hunter CCK8 and test compounds were diluted with HEPES-EGTA-salt buffer (see above) containing 0.5% bovine serum albumin (BSA). To 1 mL Skatron polystyrene tubes were added 25 uL of test compounds, 25 uL of [¹²⁵I]BH-CCK8 and 200 uL of membrane suspension. The final BSA concentration was 0.1%. The cortical tissues were incubated at 30°C for 150 min. and pancreatic tissues were incubated at 37°C for 150 min. Incubations were terminated by filtration using Skatron Cell Harvester and SS32 microfiber filter mats. The specific binding of [¹²⁵I]BH-CCK8, defined as the difference betwen binding in the absence and presence of 1 uM CCK8, was 85-90% of total binding in cortex and 90-95% in pancreas. IC₅₀s were determined from the Hill analysis.

[2] = target: T2, CCK receptors (Cavia porcellus, UniProt Q63931); experiment: Radioligand binding ([125I]Bolton-Hunter CCK8) in guinea pig pancreatic membranes
T2 construct: Cortical and pancreatic membranes were prepared as described; from tissue; host or cells: guinea pig pancreas membranes
T2 sequence (Q63931 1-430): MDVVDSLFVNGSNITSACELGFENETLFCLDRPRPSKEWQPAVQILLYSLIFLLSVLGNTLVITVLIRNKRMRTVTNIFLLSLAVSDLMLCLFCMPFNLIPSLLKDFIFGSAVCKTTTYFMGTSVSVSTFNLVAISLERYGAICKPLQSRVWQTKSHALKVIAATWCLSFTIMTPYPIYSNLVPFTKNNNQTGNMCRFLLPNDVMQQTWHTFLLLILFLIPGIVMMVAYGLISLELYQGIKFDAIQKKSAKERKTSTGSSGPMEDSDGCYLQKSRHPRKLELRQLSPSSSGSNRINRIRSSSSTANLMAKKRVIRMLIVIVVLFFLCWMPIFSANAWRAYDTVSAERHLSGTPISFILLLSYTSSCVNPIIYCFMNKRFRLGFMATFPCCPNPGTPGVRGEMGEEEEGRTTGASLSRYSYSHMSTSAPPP
Protocol: EGTA, HEPES, BSA were purchased from Sigma Chemical Co. (St. Louis, MO). […] Male ginea pigs, 250 to 325 g, were obtained from Scientific Small Animal Laboratory and Farm (Arlington Heights, IL). Collangenase, code CLSPA was purchased from Worthington (Frehold, NJ).
The final BSA concentration was 0.1%. The cortical tissues were incubated at 30°C for 150 min. and pancreatic tissues were incubated at 37°C for 150 min. Incubations were terminated by filtration using Skatron Cell Harvester and SS32 microfiber filter mats. […] IC₅₀s were determined from the Hill analysis.

[3] = target: T3, CCK-B receptors on small cell lung cancer cell lines (Homo sapiens, UniProt P32239); experiment: Measurement of [Ca++]i changes in NCI-H345 and H209 cell lines (indo-1 fluorescence); format: cell-based; conditions: read-out: Intrinsic Activity Relative to CCK-8
T3 construct: endogenous in cells; host or cells: NCI-H345 and H209 small cell lung cancer cells
T3 sequence (P32239 1-447): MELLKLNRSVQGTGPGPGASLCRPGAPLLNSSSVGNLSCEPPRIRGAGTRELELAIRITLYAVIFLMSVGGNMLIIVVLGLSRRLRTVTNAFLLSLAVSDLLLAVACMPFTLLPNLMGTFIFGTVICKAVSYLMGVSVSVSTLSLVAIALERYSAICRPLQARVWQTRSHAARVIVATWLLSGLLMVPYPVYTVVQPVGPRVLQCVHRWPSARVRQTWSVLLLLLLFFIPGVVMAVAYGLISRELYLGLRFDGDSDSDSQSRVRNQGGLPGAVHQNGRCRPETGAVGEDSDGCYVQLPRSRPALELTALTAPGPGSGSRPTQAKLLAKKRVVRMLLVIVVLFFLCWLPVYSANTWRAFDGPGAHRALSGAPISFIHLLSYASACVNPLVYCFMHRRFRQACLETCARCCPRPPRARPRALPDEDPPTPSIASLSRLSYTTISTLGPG
Protocol: Protocol for Measuring [Ca++]i Changes in NCI-H345 and H209 Cell Lines
Culture conditions were as described (D.G. Yoder, T.W. Moody, Peptides, 8, 103 (1987), except that the medium was modified to RPMI 1640 with 2.5% fetal bovine serum (heat inactivated), 5µg/l sodium selenite, 5 mg/l human transferrin, 5 mg/l insulin, penicillin (100 U/l) and streptomycin (100 µg/l). To measure intracellular Ca²⁺, cells were loaded with 1 µM of indo-1,AM, for 60 min at 37°C. The cells were centrifuged at 750 x g for 5 min and resuspended in 40 mL Buffer F (Dulbecco's phosphate buffered saline containing 0.1% glucose, pH 7.4). The cells were counted then twice washed by centrifugation. The final pellet was resuspended (approximately 1 x 10⁶ cells/mL) in Buffer F. The cells were thermally equilibrated in a thermostated cuvette (37°C) for 2 min prior to base-line fluorescence measurement. Fluorescence measurements were made with an SLM 8000C spectrofluorimeter equipped with magnetic microstirrer and polarizing filters. Measurements with indo-1-loaded cells were obtained at excitation wavelength of 350 nm and emission wavelength of 480 and 405 nM and the time interval for the measurements was 0.5 sec.

[4] = displacement of [125I]BH-CCK8, pancreatic membranes, 37°C for 150 min, Hill analysis, read-out: IC₅₀ (uM) pancreas

Compound	IC50 [1]	IC50 [2, 4]	Emax [3]	IC50 [2]
CC(C)C[C@H](NC(=O)[C@H](Cc1c[nH]c2ccccc12)NC(=O)OC(C)(C)C)C(=O)N[C@@H](CC(=O)O)C(=O)N[C@@H](Cc1c[nH]c2ccccc12)C(N)=O [Example 42, Boc-Trp-Leu-Asp-Trp-NH₂] (Boc-WLDW-NH2)	13 nM	3.8 µM		
CC(C)C[C@H](NC(=O)[C@H](Cc1ccc2ccccc2c1)NC(=O)OC(C)(C)C)C(=O)N[C@@H](CC(=O)O)C(=O)N[C@@H](Cc1ccccc1)C(N)=O [Example 50, Boc-β-Nal-Leu-Asp-Phe-NH₂] (Boc-[2Nal]LDF-NH2)	27 nM	5 µM		
CC(C)C[C@H](NC(=O)[C@H](Cc1c[nH]c2ccccc12)NC(=O)OC(C)(C)C)C(=O)N[C@@H](CC(=O)O)C(=O)NC(=Cc1ccccc1)C(N)=O [Example 19, Boc-Trp-Leu-Asp-(dehydro)Phe-NH₂]	54 nM	1.8 µM		
CCC[C@H]1CCN(C(=O)[C@@H]2Cc3c[nH]c4cccc(c34)CC(=O)N2)[C@@H]1C(=O)N[C@@H](CC(=O)O)C(=O)N(C)[C@@H](Cc1ccccc1)C(N)=O [Example 52, Ctp-Tpp-Asp-(NMe)Phe-NH₂]	2.6 nM	3.5 µM	100%	
CC(C)C[C@H](NC(=O)[C@H](Cc1c[nH]c2ccccc12)NC(=O)OC(C)(C)C)C(=O)N[C@@H](CC(=O)O)C(=O)N1Cc2ccccc2C[C@H]1C(N)=O [Example 2, Boc-Trp-Leu-Asp-Tiq-NH₂] (Boc-WLD[Tic]-NH2)	37 nM			19 µM
CCC[C@H]1CCN(C(=O)[C@H](Cc2c[nH]c3ccccc23)NC(=O)OC(C)(C)C)[C@@H]1C(=O)N[C@@H](CC(=O)O)C(=O)N[C@@H](Cc1ccccc1)C(N)=O [Example 47, Boc-Trp-Tpp-Asp-Phe-NH₂]	1.2 nM	89 µM		
CC(C)C[C@H](NC(=O)[C@@H]1Cc2c[nH]c3cccc(c23)CC(=O)N1)C(=O)N[C@@H](CC(=O)O)C(=O)NC(=Cc1ccccc1)C(N)=O [Example 23, Ctp-Leu-Asp-(dehydro)Phe-NH₂]	16 nM	> 10 µM		
CC(C)C[C@H](NC(=O)[C@@H]1Cc2c[nH]c3cccc(c23)CC(=O)N1)C(=O)N[C@@H](CC(=O)O)C(=O)N(C)[C@@H](Cc1ccccc1)C(N)=O [Example 6, Ctp-Leu-Asp-(NMe)Phe-NH₂]			96%	
CC(C)C[C@H](NC(=O)[C@H](Cc1c[nH]c2ccccc12)NC(=O)OC(C)(C)C)C(=O)N[C@@H](CC(=O)O)C(=O)N[C@@H](Cc1cccc2ccccc12)C(N)=O [Example 45, Boc-Trp-Leu-Asp-α-Nal-NH₂] (Boc-WLD[1Nal]-NH2)	12 nM	1.7 µM		
CC(C)C[C@@H](C(=O)N[C@@H](CC(=O)O)C(=O)N[C@@H](Cc1ccccc1)C(N)=O)N(C)C(=O)[C@H](Cc1c[nH]c2ccccc12)NC(=O)OCc1ccccc1 [Example 15, Cbz-Trp-(NMe)Leu-Asp-Phe-NH₂] (Cbz-W[NMeL]DF-NH2)	5 nM	1 µM		
CC(C)C[C@H](NC(=O)[C@@H]1Cc2c[nH]c3cccc(c23)CC(=O)N1)C(=O)N[C@@H](CC(=O)O)C(=O)N[C@@H](Cc1ccccc1)C(N)=O [Example 1, CTP-Leu-Asp-Phe-NH₂]	2.5 nM	2.7 µM		
CCC[C@H]1CCN(C(=O)[C@H](Cc2c[nH]c3ccccc23)NC(=O)OC(C)(C)C)[C@@H]1C(=O)N[C@@H](CC(=O)O)C(=O)N[C@@H](Cc1c[nH]c2ccccc12)C(N)=O [Example 54, Boc-Trp-Tpp-Asp-Trp-NH₂]	5 nM	3.7 µM		
CCC[C@H]1CCN(C(=O)[C@@H]2Cc3c[nH]c4cccc(c34)CC(=O)N2)[C@@H]1C(=O)N[C@@H](CC(=O)O)C(=O)N[C@@H](Cc1ccc2ccccc2c1)C(N)=O [Example 58, Ctp-Tpp-Asp-β-Nal-NH₂]	1.9 nM	11 µM	100%	
CC(C)C[C@H](NC(=O)[C@H](Cc1c[nH]c2ccccc12)NC(=O)OC(C)(C)C)C(=O)N[C@@H](CC(=O)O)C(=O)N[C@@H](Cc1ccc2ccccc2c1)C(N)=O [Example 44, Boc-Trp-Leu-Asp-β-Nal-NH₂] (Boc-WLD[2Nal]-NH2)			104%	
CC(C)C[C@H](NC(=O)[C@H](Cc1c[nH]c2ccccc12)NC(=O)OC(C)(C)C)C(=O)N[C@@H](Cc1nnn[nH]1)C(=O)N[C@@H](Cc1ccccc1)C(N)=O [Example 9, Boc-Trp-Leu-[β-1(2)H-tetrazol-5-yl]-L-alanyl-Phe-NH₂] (Boc-WL[Ala(1H-tetrazol-5-yl)]F-NH2)	13 nM	> 1 µM		
CCC[C@H]1CCN(C(=O)[C@@H]2Cc3c[nH]c4cccc(c34)CC(=O)N2)[C@@H]1C(=O)N[C@@H](CC(=O)O)C(=O)N[C@@H](Cc1cccc2ccccc12)C(N)=O [Example 57, Ctp-Tpp-Asp-α-Nal-NH₂]	0.4 nM	1.4 µM	109%	
CC(C)C[C@H](NC(=O)[C@H](Cc1c[nH]c2ccccc12)NC(=O)OC(C)(C)C)C(=O)N[C@@H](CC(=O)O)C(=O)N[C@@H](CC1CCCCC1)C(N)=O [Example 43, Boc-Trp-Leu-Asp-Cha-NH₂] (Boc-WLD[Cha]-NH2)	170 nM	11 µM		
CCC[C@H]1CCN(C(=O)[C@@H]2Cc3c[nH]c4cccc(c34)CC(=O)N2)[C@@H]1C(=O)N[C@@H](CC(=O)O)C(=O)N[C@@H](CC1CCCCC1)C(N)=O [Example 59, Ctp-Tpp-Asp-Cha-NH₂]	0.9 nM	4.3 µM		
